Patent US20260274832A1, “COMPOUNDS AND THEIR USE IN TREATING CANCER” (ASTRAZENECA AB, priority 2023, published 2026)

Columns and labels:
[1] = molecular target: T1, AR (L702H) in LNCaP cells (Homo sapiens, UniProt P10275, L702H/T878A); test: LNCaP Androgen Receptor L702H Imaging Assay (LNCaP cells engineered by CRISPR/Cas9); assay type: cell-based; details: LNCaP cells with AR L702H mutation, 24 h incubation; for DC50: concentration giving 50% of maximum degradation of AR (L702H) per curve fit; for Dmax: LNCaP, maximum degradation observed, normalized as % of positive control
T1 construct: engineered to introduce the mutation L702H into the AR gene using CRISPR/Cas9; endogenous in cells; host or cells: LNCaP cells edited by CRISPR/Cas9 at the AR gene
T1 sequence (P10275 whole entry L702H/T878A): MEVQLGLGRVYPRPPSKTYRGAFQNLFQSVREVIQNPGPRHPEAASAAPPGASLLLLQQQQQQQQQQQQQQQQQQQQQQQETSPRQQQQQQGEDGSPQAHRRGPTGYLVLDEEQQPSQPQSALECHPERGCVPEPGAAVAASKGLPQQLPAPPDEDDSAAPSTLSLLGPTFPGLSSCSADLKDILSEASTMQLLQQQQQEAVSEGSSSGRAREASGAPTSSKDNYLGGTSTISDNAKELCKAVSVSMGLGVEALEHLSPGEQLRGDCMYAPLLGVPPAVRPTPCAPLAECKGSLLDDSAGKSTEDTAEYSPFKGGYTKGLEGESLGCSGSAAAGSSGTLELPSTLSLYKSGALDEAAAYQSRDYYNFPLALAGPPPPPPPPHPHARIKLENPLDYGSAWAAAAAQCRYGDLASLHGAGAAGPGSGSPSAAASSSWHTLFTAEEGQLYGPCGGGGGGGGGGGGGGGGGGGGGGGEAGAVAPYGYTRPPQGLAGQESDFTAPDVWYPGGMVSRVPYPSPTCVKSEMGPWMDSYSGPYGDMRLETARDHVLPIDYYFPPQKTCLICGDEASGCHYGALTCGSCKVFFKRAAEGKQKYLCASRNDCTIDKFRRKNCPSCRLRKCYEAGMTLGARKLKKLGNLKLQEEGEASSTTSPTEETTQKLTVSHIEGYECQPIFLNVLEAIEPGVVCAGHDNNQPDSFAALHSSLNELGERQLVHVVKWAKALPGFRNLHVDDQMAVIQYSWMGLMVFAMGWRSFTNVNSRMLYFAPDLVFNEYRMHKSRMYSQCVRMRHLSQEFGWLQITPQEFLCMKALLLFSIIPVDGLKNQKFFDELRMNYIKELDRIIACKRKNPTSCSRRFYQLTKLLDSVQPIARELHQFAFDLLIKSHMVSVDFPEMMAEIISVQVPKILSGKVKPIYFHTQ
T1 sequence (Q96SW2 whole entry partner): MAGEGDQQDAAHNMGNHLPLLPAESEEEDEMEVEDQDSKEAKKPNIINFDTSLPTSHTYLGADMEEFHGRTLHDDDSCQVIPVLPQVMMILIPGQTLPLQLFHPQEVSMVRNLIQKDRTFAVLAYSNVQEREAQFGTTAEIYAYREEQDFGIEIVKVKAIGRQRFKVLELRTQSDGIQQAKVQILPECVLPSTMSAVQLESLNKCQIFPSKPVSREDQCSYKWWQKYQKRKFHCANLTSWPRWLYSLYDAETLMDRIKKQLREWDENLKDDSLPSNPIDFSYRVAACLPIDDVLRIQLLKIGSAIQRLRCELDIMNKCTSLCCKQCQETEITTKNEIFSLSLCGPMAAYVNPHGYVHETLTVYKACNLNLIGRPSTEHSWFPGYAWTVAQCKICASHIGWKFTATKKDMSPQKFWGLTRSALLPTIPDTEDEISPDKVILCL
In short: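 CRISPR-engineered LNCaP cells carrying AR L702H were treated 24 h at 37 °C with a 12-point compound dose response (0.3% DMSO), then fixed and immunostained for AR with DRAQ5 nuclear counterstain. Nuclear AR was quantified by imaging, normalized to positive control; DC50 and Dmax came from Hill or bell-shaped fits.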

[2] = molecular target: T2, AR (AR-full length) in LNCaP cells (Homo sapiens, UniProt P10275, T878A); test: LNCaP Androgen Receptor Imaging Assay (immunofluorescence of endogenous nuclear AR); assay type: cell-based; details: 24 h incubation; for DC50: concentration giving 50% of maximum degradation of AR per curve fit, single experiment or average of two or more; for Dmax: LNCaP, maximum degradation observed, normalized as % of positive control (prior art AR PROTAC at 3 μM)
T2 construct: the prostate cancer cell line LNCaP (expressing AR-full length); endogenous in cells; host or cells: LNCaP
T2 sequence (P10275 whole entry T878A): as the sequence (P10275 whole entry L702H/T878A) above, with H702L counted along it
T2 sequence (Q96SW2 whole entry partner): as the sequence (Q96SW2 whole entry partner) above
In short: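 LNCaP cells (12,000/well) received a 12-point compound dose series (0.3% DMSO) for 24 h at 37° C., then were PFA-fixed and stained for AR (AR441) and nuclei (DRAQ5). Nuclear AR was quantified by imaging, normalized to a 3 μM AR PROTAC control; DC50 and Dmax came from Hill/bell curve fits.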

Row | Structure (SMILES) | DC50 [1] [nM] | Dmax [1] [%] | DC50 [2] [nM] | Dmax [2] [%]
1 | N#Cc1n[nH]c2c(N3CCC[C@@H](c4ccc(N5CCC(CN6CCN(c7ccc8c(c7)CN(C7CCC(=O)NC7=O)C8=O)CC6)CC5)cc4)C3)ccc(F)c12 (stereo partly drawn) [Example 133, 7-[(3S)-3-{4-[4-({4-[2-(2,6-Dioxopiperidin-3-yl)-1-oxo-2,3-dihydro-1H-isoindol-5-yl]piperazin-1-yl}methyl)piperidin-1-yl]phenyl}piperidin-1-yl]-4-fluoro-1H-indazole-3-carbonitrile] | 8 | 97 | 4 | 103
2 | N#Cc1n[nH]c2c(N3CCC[C@@H](c4ccc(N5CCC(CN6CCC(n7ccc8c(N9CCC(=O)NC9=O)cccc87)CC6)CC5)cc4)C3)ccc(F)c12 [Example 134, 7-[(3S)-3-{4-[4-({4-[4-(2,4-Dioxo-1,3-diazinan-1-yl)-1H-indol-1-yl]piperidin-1-yl}methyl)piperidin-1-yl]phenyl}piperidin-1-yl]-4-fluoro-1H-indazole-3-carbonitrile] | 22 | 94 | 5 | 106
3 | N#Cc1c[nH]c2c(N3CCC(c4ccc(N5CC6(CCC(CN7CCC(n8ccc9c(N%10CCC(=O)NC%10=O)cccc98)CC7)CC6)C5)cc4)CC3)ccc(F)c12 [Example 135, 7-(4-{4-[7-({4-[4-(2,4-Dioxo-1,3-diazinan-1-yl)-1H-indol-1-yl]piperidin-1-yl}methyl)-2-azaspiro[3.5]nonan-2-yl]phenyl}piperidin-1-yl)-4-fluoro-1H-indole-3-carbonitrile] | 81 | 91 | 24 | 105
4 | Cn1c(C2CCN(CC3CCN(c4ccc([C@H]5CCCN(c6ccc(Cl)c7c(C#N)c[nH]c67)C5)cc4)CC3)CC2)cc2cc(F)c(N3CCC(=O)NC3=O)cc21 [Example 136, 4-Chloro-7-[(3R)-3-{4-[4-({4-[6-(2,4-dioxo-1,3-diazinan-1-yl)-5-fluoro-1-methyl-1H-indol-2-yl]piperidin-1-yl}methyl)piperidin-1-yl]phenyl}piperidin-1-yl]-1H-indole-3-carbonitrile] | 14 | 108 | 10 | 104
5 | Cn1c(C2CCN(CC3CCN(c4ccc([C@@H]5CCCN(c6ccc(Cl)c7c(C#N)c[nH]c67)C5)cc4)CC3)CC2)cc2cc(F)c(N3CCC(=O)NC3=O)cc21 [Example 137, 4-Chloro-7-[(3S)-3-{4-[4-({4-[6-(2,4-dioxo-1,3-diazinan-1-yl)-5-fluoro-1-methyl-1H-indol-2-yl]piperidin-1-yl}methyl)piperidin-1-yl]phenyl}piperidin-1-yl]-1H-indole-3-carbonitrile] | 20 | 109 | 10 | 105
6 | Cn1c(C2CCN(CC3CCN(c4ccc([C@H]5CCCN(c6ccc(Cl)c7c(C#N)n[nH]c67)C5)cc4)CC3)CC2)cc2cc(F)c(N3CCC(=O)NC3=O)cc21 [Example 138, 4-Chloro-7-[(3R)-3-{4-[4-({4-[6-(2,4-dioxo-1,3-diazinan-1-yl)-5-fluoro-1-methyl-1H-indol-2-yl]piperidin-1-yl}methyl)piperidin-1-yl]phenyl}piperidin-1-yl]-1H-indazole-3-carbonitrile] | 6 | 108 | 8 | 104
7 | Cn1c(C2CCN(CC3CCN(c4ccc([C@@H]5CCCN(c6ccc(Cl)c7c(C#N)n[nH]c67)C5)cc4)CC3)CC2)cc2cc(F)c(N3CCC(=O)NC3=O)cc21 [Example 139, 4-Chloro-7-[(3S)-3-{4-[4-({4-[6-(2,4-dioxo-1,3-diazinan-1-yl)-5-fluoro-1-methyl-1H-indol-2-yl]piperidin-1-yl}methyl)piperidin-1-yl]phenyl}piperidin-1-yl]-1H-indazole-3-carbonitrile] | 16 | 107 | 10 | 105
8 | Cn1c(C2CCN(CC3CCN(c4ccc(C5CCN(c6ccc(F)c7c(C#N)n[nH]c67)CC5)cc4)CC3)CC2)cc2ccc(N3CCC(=O)NC3=O)cc21 [Example 140, 7-(4-{4-[4-({4-[6-(2,4-Dioxo-1,3-diazinan-1-yl)-1-methyl-1H-indol-2-yl]piperidin-1-yl}methyl)piperidin-1-yl]phenyl}piperidin-1-yl)-4-fluoro-1H-indazole-3-carbonitrile] | 14 | 56 | 7 | 88
9 | Cc1cc2c(N3CCC(=O)NC3=O)cccc2n1C1CCN(CC2CCN(c3ccc(C4CCN(c5ccc(F)c6c(C#N)c[nH]c56)CC4)cc3)CC2)CC1 [Example 141, 7-(4-{4-[4-({4-[4-(2,4-Dioxo-1,3-diazinan-1-yl)-2-methyl-1H-indol-1-yl]piperidin-1-yl}methyl)piperidin-1-yl]phenyl}piperidin-1-yl)-4-fluoro-1H-indole-3-carbonitrile] | 23 | 105 | 21 | 95
10 | N#Cc1c[nH]c2c(N3CCC(c4ccc(N5CC6(CCC(CN7CCC(n8ccc9c(N%10CCC(=O)NC%10=O)cccc98)CC7)CC6)C5)cc4)CC3)ccc(Cl)c12 [Example 142, 4-Chloro-7-(4-{4-[7-({4-[4-(2,4-dioxo-1,3-diazinan-1-yl)-1H-indol-1-yl]piperidin-1-yl}methyl)-2-azaspiro[3.5]nonan-2-yl]phenyl}piperidin-1-yl)-1H-indole-3-carbonitrile] | 45 | 109 | 25 | 106
11 | COc1nc(N2CCN(CC3CCN(c4ccc(C5CCN(c6ccc(Cl)c7c(C#N)n[nH]c67)CC5)cc4)CC3)CC2)cc2c1C(=O)N(C1CCC(=O)NC1=O)C2 (centres unmarked) [Example 143, 4-Chloro-7-(4-{4-[4-({4-[2-(2,6-dioxopiperidin-3-yl)-4-methoxy-3-oxo-2,3-dihydro-1H-pyrrolo[3,4-c]pyridin-6-yl]piperazin-1-yl}methyl)piperidin-1-yl]phenyl}piperidin-1-yl)-1H-indazole-3-carbonitrile] | 67 | 104 | 37 | 101
12 | COc1nc(N2CCN(CC3CCN(c4ccc(C5CCN(c6ccc(F)c7c(C#N)n[nH]c67)CC5)cc4)CC3)CC2)cc2c1C(=O)N(C1CCC(=O)NC1=O)C2 (centres unmarked) [Example 144, 7-(4-{4-[4-({4-[2-(2,6-Dioxopiperidin-3-yl)-4-methoxy-3-oxo-2,3-dihydro-1H-pyrrolo[3,4-c]pyridin-6-yl]piperazin-1-yl}methyl)piperidin-1-yl]phenyl}piperidin-1-yl)-4-fluoro-1H-indazole-3-carbonitrile] | 95 | 75 | 21 | 97
13 | N#Cc1n[nH]c2c(N3CCC(c4ccc(N5CCC(CN6CCN(c7ccc8c(c7)CN(C7CCC(=O)NC7=O)C8=O)CC6)CC5)cc4)CC3)ccc(F)c12 (centres unmarked) [Example 145, 7-(4-{4-[4-({4-[2-(2,6-Dioxopiperidin-3-yl)-1-oxo-2,3-dihydro-1H-isoindol-5-yl]piperazin-1-yl}methyl)piperidin-1-yl]phenyl}piperidin-1-yl)-4-fluoro-1H-indazole-3-carbonitrile] | 40 | 70 | 9 | 98
14 | N#Cc1n[nH]c2c(N3CCC(c4ccc(N5CCC(CN6CCC(n7ccc8c(N9CCC(=O)NC9=O)cccc87)CC6)CC5)cc4)CC3)ccc(Cl)c12 [Example 146, 4-Chloro-7-(4-{4-[4-({4-[4-(2,4-dioxo-1,3-diazinan-1-yl)-1H-indol-1-yl]piperidin-1-yl}methyl)piperidin-1-yl]phenyl}piperidin-1-yl)-1H-indazole-3-carbonitrile] | 38 | 102 | 27 | 100
15 | N#Cc1n[nH]c2c(N3CCC(c4ccc(N5CCC(CN6CCC(n7ccc8c(N9CCC(=O)NC9=O)cccc87)CC6)CC5)cc4)CC3)ccc(F)c12 [Example 147, 7-(4-{4-[4-({4-[4-(2,4-Dioxo-1,3-diazinan-1-yl)-1H-indol-1-yl]piperidin-1-yl}methyl)piperidin-1-yl]phenyl}piperidin-1-yl)-4-fluoro-1H-indazole-3-carbonitrile] | 38 | 96 | 6 | 102
16 | COc1cc(N2CCN(CCCCOc3ccc(C4CCN(c5ccc(C)c6c(C#N)n[nH]c56)CC4)cc3)CC2)cc2c1C(=O)N(C1CCC(=O)NC1=O)C2 (centres unmarked) [Example 148, 7-{4-[4-(4-{4-[2-(2,6-Dioxopiperidin-3-yl)-7-methoxy-1-oxo-2,3-dihydro-1H-isoindol-5-yl]piperazin-1-yl}butoxy)phenyl]piperidin-1-yl}-4-methyl-1H-indazole-3-carbonitrile] | 52 | 89 | 20 | 99
17 | COc1cc(N2CCN(CC3CCN(c4ccc(C5CCN(c6ccc(C)c7c(C#N)n[nH]c67)CC5)cc4)CC3)CC2)cc2c1C(=O)N(C1CCC(=O)NC1=O)C2 (centres unmarked) [Example 149, 7-(4-{4-[4-({4-[2-(2,6-Dioxopiperidin-3-yl)-7-methoxy-1-oxo-2,3-dihydro-1H-isoindol-5-yl]piperazin-1-yl}methyl)piperidin-1-yl]phenyl}piperidin-1-yl)-4-methyl-1H-indazole-3-carbonitrile] | 60 | 91 | 20 | 96
